Measurements taken from patent US20250025439A1, “DERIVATIVES OF NIFUROXAZIDE FOR USE IN THE TREATMENT OF MITOCHONDRIAL DISORDERS AND NEURODEGENERATIVE DISEASES” (priority 2021, published 2025).

Tests used:
Test in all cases: Affinity chromatography with NFX-beads and mass spectrometry
Assay type in all cases: binding
Conditions in all cases: spectral counts, NFX coupled beads vs beads alone, human fibroblast extracts
[1] = target: T1, E3 ubiquitin-protein ligase DTX3L (Homo sapiens, UniProt Q8TDB6)
T1 construct: Protein extracts from human fibroblasts were incubated with magnetic beads; endogenous in cells; host or cells: human fibroblast lysate
Description: (§1) Fibroblasts were trypsinized and washed with PBS 1× then incubated in lysis buffer on ice during 20 minutes (Lysis buffer: Tris-HCl pH 7.5 50 mM, EDTA 2 mM, Triton X-100 0.1% supplemented with anti-protease and anti-phosphatase (Complete-Mini™—Roche). After centrifugation 15 minutes, 13 000 rpm at 4° C., supernatant was conserved and the protein concentration was determined using the Pierce BCA assay kit (Thermo Fisher Scientific).
(§2) 10 μL of magnetic beads and NFX-beads were washed three times in Bead buffer before to be resuspended 100 μL of Bead buffer (Bead buffer: Tris-HCl pH 7.5 50 mM, NaCl 150 mM, Triton X-100 0.1%, supplemented with anti-protease and anti-phosphatase (Complete-Mini™—Roche)) thanks to a magnetic rack (DynaMag-2 Ref 12321D Life Technologies). 800 μg of proteins were mixed with 100 μL of diluted beads and the final volume was set to 800 μL with Bead buffer. The proteins and the beads were incubated 30 minutes with rotation in a cold room. Using a magnetic rack, the beads were separated from the protein extract and washed three time with Bead buffer before to be resuspended in 75 μL of Laemmli2X. Laemmli with beads was put 5 minutes at 95° C. to eluate the proteins and the beads were discarded using a magnetic rack. 35 μL of the eluted proteins were subjected to SDS-PAGE and silver coloration (ProteoSilver™ Silver Stain Kit—Sigma Aldrich). Bands of interest were extracted from the gel and subjected to mass spectrometry.
(§3) Mass spectrometric identification and quantification of the pulled down proteins were performed as previously described (Shrivastava et al., EMBO, 2019, 38:e99871). The raw data were cleaned using the following pathway. First, only the proteins found to interact with the NFX coupled beads in the three replicates were kept for further analysis. […] The final proteins were then classified based on the fold chance and the p-value.
(§4) Identification of the NFX intracellular targets is a crucial step in understanding its mechanisms of action and to be able to improve its efficiency on a rational basis. To purify NFX-binding proteins, affinity chromatography purification was performed using magnetic beads. Protein extracts from human fibroblasts were incubated with magnetic beads alone or to which NFX has been covalently coupled (Scheme 1). Eluted fractions were subjected to SDS-PAGE electrophoresis and silver staining (FIG. 9A). The pattern was clearly different between eluted proteins from NFX-beads compared to those eluted form beads alone with 13 bands either appeared or were of a higher intensity with the NFX-beads (FIG. 9B). Excised bands were subjected to proteolytic digestion and mass spectrometry.

[2] = target: T2, Kinesin-1 heavy chain (KIF5B) (Homo sapiens, UniProt P33176)
T2 construct: Protein extracts from human fibroblasts were incubated with magnetic beads; endogenous in cells; host or cells: human fibroblast lysate
T2 sequence (P33176 1-963): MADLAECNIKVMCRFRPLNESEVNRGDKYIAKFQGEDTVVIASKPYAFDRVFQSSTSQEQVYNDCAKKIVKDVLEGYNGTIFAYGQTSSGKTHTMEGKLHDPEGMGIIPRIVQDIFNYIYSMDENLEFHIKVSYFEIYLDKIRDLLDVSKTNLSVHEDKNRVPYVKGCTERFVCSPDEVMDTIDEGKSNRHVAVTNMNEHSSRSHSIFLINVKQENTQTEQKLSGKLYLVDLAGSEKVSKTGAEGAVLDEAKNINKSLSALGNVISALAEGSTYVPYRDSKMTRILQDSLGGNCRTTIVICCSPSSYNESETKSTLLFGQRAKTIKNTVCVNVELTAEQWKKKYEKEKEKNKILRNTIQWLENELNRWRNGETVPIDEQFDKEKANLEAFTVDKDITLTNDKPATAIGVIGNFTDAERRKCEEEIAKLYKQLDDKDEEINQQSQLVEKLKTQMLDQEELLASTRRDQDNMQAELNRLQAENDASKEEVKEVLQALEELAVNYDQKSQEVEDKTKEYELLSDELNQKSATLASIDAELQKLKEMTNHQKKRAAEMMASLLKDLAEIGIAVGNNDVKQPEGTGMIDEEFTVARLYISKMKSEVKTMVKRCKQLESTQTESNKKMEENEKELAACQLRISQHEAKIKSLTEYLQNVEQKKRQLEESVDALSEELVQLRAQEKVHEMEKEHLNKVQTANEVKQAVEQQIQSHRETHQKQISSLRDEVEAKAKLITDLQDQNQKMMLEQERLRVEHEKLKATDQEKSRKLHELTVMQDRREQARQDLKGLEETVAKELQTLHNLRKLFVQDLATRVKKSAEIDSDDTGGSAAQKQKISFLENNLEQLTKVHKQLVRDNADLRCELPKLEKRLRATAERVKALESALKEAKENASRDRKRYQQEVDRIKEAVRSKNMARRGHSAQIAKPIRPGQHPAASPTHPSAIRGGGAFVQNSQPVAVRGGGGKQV
Description: as §1, §2, §3, §4

[3] = target: T3, Mitogen-activated protein kinase (MAP4K4) (Homo sapiens, UniProt O95819)
T3 construct: Protein extracts from human fibroblasts were incubated with magnetic beads; endogenous in cells; host or cells: human fibroblast lysate
Description: as §1, §2, §3, §4

[4] = target: T4, Unconventional myosin-IXb (MYO9B) (Homo sapiens, UniProt Q13459)
T4 construct: Protein extracts from human fibroblasts were incubated with magnetic beads; endogenous in cells; host or cells: human fibroblast lysate
Description: as §1, §2, §3, §4

T3 sequence (O95819 whole entry): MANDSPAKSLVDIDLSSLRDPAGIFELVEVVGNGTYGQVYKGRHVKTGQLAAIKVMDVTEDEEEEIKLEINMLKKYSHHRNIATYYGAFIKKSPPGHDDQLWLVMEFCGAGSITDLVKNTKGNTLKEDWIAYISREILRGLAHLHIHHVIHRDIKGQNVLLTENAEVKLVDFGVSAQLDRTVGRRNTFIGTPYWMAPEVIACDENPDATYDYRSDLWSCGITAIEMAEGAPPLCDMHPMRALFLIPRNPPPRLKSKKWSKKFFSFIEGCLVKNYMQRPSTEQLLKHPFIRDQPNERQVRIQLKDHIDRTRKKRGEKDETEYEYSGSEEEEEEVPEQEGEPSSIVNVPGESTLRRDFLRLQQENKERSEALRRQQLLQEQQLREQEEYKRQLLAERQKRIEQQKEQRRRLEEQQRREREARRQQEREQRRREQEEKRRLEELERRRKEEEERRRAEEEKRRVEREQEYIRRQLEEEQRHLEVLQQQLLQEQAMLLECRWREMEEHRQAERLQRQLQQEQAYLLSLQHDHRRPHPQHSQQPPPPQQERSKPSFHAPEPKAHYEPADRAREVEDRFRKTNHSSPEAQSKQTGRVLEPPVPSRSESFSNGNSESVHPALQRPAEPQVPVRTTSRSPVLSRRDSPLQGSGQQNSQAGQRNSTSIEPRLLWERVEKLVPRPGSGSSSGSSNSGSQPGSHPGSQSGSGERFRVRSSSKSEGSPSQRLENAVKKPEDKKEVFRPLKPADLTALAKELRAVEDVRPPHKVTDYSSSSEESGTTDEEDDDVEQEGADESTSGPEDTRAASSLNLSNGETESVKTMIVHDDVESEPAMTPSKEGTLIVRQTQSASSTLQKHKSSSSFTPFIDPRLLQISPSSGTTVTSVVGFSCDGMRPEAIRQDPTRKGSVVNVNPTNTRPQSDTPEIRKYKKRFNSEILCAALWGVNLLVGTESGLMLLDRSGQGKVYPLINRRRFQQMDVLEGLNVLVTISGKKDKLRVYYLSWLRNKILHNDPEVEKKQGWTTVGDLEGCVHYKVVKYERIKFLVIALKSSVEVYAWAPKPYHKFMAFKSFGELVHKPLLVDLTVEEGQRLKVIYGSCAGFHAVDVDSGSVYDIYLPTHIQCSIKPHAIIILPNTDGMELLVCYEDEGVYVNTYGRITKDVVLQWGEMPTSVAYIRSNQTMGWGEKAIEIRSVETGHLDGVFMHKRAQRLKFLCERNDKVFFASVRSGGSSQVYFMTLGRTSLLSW
T4 sequence (Q13459 whole entry): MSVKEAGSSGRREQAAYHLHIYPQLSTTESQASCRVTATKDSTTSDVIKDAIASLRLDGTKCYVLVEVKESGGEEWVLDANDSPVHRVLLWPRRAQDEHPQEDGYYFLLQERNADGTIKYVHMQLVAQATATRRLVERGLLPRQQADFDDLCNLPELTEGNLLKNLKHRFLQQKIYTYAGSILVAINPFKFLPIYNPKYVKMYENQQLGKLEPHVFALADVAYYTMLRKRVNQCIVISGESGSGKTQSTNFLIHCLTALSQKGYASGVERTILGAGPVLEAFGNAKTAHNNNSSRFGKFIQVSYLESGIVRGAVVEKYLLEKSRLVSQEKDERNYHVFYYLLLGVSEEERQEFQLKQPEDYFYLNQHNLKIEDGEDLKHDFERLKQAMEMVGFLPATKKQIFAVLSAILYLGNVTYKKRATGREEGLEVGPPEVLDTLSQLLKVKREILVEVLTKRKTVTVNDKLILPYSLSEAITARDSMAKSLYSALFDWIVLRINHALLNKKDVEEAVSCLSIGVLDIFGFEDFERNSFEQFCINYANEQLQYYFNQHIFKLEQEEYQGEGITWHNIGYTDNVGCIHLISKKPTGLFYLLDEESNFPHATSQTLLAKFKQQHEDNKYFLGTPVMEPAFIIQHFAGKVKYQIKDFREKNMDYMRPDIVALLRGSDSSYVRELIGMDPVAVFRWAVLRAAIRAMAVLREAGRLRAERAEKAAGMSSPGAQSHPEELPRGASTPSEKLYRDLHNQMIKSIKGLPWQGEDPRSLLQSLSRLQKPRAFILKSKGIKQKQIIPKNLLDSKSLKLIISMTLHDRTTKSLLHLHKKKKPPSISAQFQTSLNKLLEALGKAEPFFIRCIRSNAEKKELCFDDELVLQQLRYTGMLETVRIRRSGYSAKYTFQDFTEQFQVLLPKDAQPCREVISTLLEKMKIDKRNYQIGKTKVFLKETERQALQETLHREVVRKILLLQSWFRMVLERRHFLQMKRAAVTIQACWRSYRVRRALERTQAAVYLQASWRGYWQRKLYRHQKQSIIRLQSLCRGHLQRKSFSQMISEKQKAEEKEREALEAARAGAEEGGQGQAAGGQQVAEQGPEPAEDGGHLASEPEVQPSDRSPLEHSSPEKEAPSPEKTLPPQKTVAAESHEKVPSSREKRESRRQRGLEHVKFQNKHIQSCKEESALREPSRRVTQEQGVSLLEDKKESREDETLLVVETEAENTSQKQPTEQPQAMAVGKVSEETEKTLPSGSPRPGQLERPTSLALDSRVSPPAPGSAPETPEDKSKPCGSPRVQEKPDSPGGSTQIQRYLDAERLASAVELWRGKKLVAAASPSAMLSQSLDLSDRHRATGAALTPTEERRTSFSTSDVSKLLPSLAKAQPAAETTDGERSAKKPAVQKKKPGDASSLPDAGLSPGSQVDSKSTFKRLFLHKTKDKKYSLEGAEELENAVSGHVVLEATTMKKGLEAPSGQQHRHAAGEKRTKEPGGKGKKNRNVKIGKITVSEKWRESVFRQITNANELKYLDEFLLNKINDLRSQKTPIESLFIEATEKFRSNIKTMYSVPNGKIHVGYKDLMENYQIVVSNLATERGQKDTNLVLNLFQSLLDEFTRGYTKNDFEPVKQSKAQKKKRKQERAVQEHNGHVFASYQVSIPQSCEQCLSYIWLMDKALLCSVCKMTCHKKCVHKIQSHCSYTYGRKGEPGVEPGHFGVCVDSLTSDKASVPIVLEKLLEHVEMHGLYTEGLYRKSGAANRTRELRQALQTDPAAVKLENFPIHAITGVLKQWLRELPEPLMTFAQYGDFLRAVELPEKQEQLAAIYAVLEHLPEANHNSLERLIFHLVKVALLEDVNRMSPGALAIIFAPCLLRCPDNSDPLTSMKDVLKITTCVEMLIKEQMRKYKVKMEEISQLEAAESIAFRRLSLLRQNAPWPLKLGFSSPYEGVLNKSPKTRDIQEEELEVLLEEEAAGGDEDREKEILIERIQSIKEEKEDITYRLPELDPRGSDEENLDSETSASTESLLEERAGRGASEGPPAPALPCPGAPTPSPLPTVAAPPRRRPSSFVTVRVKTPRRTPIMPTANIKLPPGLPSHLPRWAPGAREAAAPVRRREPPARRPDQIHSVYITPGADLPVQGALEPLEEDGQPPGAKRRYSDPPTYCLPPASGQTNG

O=C(N/N=C/c1ccc([N+](=O)[O-])o1)c1ccc(O)cc1 [NFX, (E)-4-hydroxy-N′-((5-nitrofuran-2-yl)methylene)benzohydrazide]
Fold change [1]: 386.67 | Fold change [2]: 121.67 | Fold change [3]: 29.76 | Fold change [4]: 34.52
